Earlier results in patent US20090035370A1, “DOSAGE FORM AND METHOD OF USE” (DRUGTECH CORPORATION, priority 2007, published 2009).
Where two headings read alike, the source gives them in different places.

What was measured:
[1] = administered orally
D2 receptor [2] = molecular target: T1, D2 receptor (Homo sapiens, UniProt P14416); details: patients receiving 300-600 mg/day
D2 receptor [3] = molecular target: T1, D2 receptor; details: PET
D2 receptor [4] = molecular target: T1, D2 receptor

T1 sequence (P14416 whole entry): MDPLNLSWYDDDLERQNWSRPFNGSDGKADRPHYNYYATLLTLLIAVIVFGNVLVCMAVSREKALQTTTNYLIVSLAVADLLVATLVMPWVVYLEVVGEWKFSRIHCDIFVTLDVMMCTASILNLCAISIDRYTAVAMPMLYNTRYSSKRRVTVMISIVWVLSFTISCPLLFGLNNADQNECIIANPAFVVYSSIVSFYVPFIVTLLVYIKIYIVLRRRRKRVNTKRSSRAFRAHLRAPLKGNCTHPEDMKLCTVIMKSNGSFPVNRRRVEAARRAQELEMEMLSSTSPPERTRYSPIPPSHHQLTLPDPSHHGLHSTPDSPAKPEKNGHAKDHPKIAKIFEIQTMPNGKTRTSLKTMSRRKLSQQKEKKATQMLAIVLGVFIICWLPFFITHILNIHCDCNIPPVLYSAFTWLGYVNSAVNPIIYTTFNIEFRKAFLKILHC

OCCOCCN1CCN(C2=Nc3ccccc3Sc3ccccc32)CC1 [Quetiapine]
time to peak plasma level [1]: ≤ 1.5 h
D2 occupancy (D2 receptor [2]; 12 hours after receiving a dose): less than 20%
D2 occupancy (D2 receptor [2]; at 2 hours): ~60%
D2 occupancy (D2 receptor [3]; 2 to 3 hours after a single dose): 58-62%
D2 occupancy (D2 receptor [3]; 12 hours after the last dose): 0-27%
D2 occupancy (D2 receptor [4]; 2-3 hours after a dose): 58-64%
D2 occupancy (D2 receptor [4]; by the end of a 12-hour dosing interval): 0-27%
antipsychotic efficacy (Kapur et al. 2000): effective antipsychotic
response to treatment (patients with a first episode of schizophrenia, single daily dose): responded to treatment
